# Assay results reported in US20260372303A1, “5-Fluoro-4-Imino-3-Methyl-1-Tosyl-3, 4-Dihydropyrimidin-2(1H) -One for Fungicide-Resistant Fungus” (priority 2022, published 2026).
# Tests used:
# Format in all cases: in vivo
# [1] = tested on: Zymoseptoria tritici strain Zt StA; assay: In planta preventive efficacy on wheat cv. Alixan against Zymoseptoria tritici strain Zt StA (control strain, sensitive); settings: for Disease Severity Intensity: % of length of 2nd leaf blade, preventive 24 h; for AUDPC: control 781.6
# Protocol: (§1) A series of experiments were conducted to evaluate the efficacy of flumetylsulforim (ADF-16) for treating different strains of Zymoseptoria tritici in comparison with commercially available fungicides. Table 1 describes the Z. tritici strains used in this study and Table 2 describes the fungicides used in this study.
# (§2) Winter wheat plants cv. Alixan (Limagrain) at the BBCH 12 growth stage were treated preventively with sterile distilled water (control), ADF-16, penthiopyrad, metconazole or tebuconazole at the rates described in Table 2 with a hand sprayer at 2 bars.
# (§3) After treatment, wheat plants were left to dry at room temperature for 1 hour and then placed in a climatic chamber: temperature of 24 °C day/18 °C night-photoperiod of 16 h light/8 h dark and a relative humidity of 65%.
# (§4) Untreated or treated whole wheat plants were inoculated 24-hours post-treatment with a calibrated pycnospore suspension of Z. tritici strains Zt StA, Zt 61, Zt 99, Zt 20, Zt 19-52, and Zt 38-02. Three replicates (pots) of 6 wheat plants each were used for each condition tested.
# (§5) After inoculation, pots were transferred in a climatic chamber: temperature of 20 °C day/17 °C night—photoperiod of 16 h light/8 h dark and controlled relative humidity.
# (§6) Disease assessments were carried out at 15 days post inoculation (dpi), 21 dpi and 28 dpi by measuring the length of the necrosis on the second leaf blade. The intensity of infection was then determined as a percentage of the total length of 2nd leaf blade.
# (§7) The fungicide efficacies were determined from the Area Under the Disease Progress Curve (AUDPC) values and expressed as a percentage of the untreated control.
# (§8) The AUDPC is a quantitative measure of disease intensity over time. The most commonly used method for estimating the AUDPC, the trapezoidal method, is performed by multiplying the average disease intensity between each pair of adjacent timepoints by the corresponding time interval and this for each time interval. The AUDPC is determined with the following formula by adding all of the trapezoids:
# (§9) [formula] • yi=disease severity at the ith observation • ti=time (days) at the ith observation • N=total number of observations
# [2] = tested on: Zymoseptoria tritici strain Zt 61; assay: In planta preventive efficacy on wheat cv. Alixan against Zymoseptoria tritici strain Zt 61; parameters: fungicide efficacy: concentration or dose not given beside the values; settings: for Disease Severity Intensity: % of length of 2nd leaf blade, preventive 24 h; for AUDPC: control 1194.9
# Protocol: as §1, §2, §3, §4, §5, §6, §7, §8, §9
# [3] = tested on: Zymoseptoria tritici strain Zt 99; assay: In planta preventive efficacy on wheat cv. Alixan against Zymoseptoria tritici strain Zt 99; settings: for Disease Severity Intensity: % of length of 2nd leaf blade, preventive 24 h; for AUDPC: control 1352.9
# Protocol: as §1, §2, §3, §4, §5, §6, §7, §8, §9
# [4] = tested on: Zymoseptoria tritici strain Zt 19-52; assay: In planta preventive efficacy on wheat cv. Alixan against Zymoseptoria tritici strain Zt 19-52; settings: % of length of 2nd leaf blade, preventive 24 h
# Protocol: as §1, §2, §3, §4, §5, §6, §7, §8, §9
# [5] = tested on: Zymoseptoria tritici strain Zt 20; assay: In planta preventive efficacy on wheat cv. Alixan against Zymoseptoria tritici strain Zt 20; settings: % of length of 2nd leaf blade, preventive 24 h
# Protocol: as §1, §2, §3, §4, §5, §6, §7, §8, §9
# [6] = tested on: Zymoseptoria tritici strain Zt 38-02; assay: In planta preventive efficacy on wheat cv. Alixan against Zymoseptoria tritici strain Zt 38-02; settings: for Disease Severity Intensity: % of length of 2nd leaf blade, preventive 24 h; for AUDPC: control 1261.4
# Protocol: as §1, §2, §3, §4, §5, §6, §7, §8, §9
# [7] = 15 dpi, rate N (g a.i./ha): ADF-16 100, penthiopyrad 200, metconazole 90, tebuconazole 250, control also no disease
# [8] = 15 dpi, rate N/2.5 (g a.i./ha): ADF-16 40, penthiopyrad 80, metconazole 36, tebuconazole 100, control also no disease
# [9] = rate N (g a.i./ha): ADF-16 100, penthiopyrad 200, metconazole 90, tebuconazole 250
# [10] = rate N/2.5 (g a.i./ha): ADF-16 40, penthiopyrad 80, metconazole 36, tebuconazole 100
smiles,measurement,setting,value
CC1(C)CCC(Cc2ccc(Cl)cc2)C1(O)Cn1cncn1 (centres unmarked) [Metconazole],Disease Severity Intensity,[1]; [7],No disease
same,Disease Severity Intensity,[1]; [8],No disease
same,Disease Severity Intensity,"[1]; 21 dpi, rate N (g a.i./ha): ADF-16 100, penthiopyrad 200, metconazole 90, tebuconazole 250, control 36.5",0.0 +/− 0.0b %
same,Disease Severity Intensity,"[1]; 21 dpi, rate N/2.5 (g a.i./ha): ADF-16 40, penthiopyrad 80, metconazole 36, tebuconazole 100, control 36.5",0.0 +/− 0.0b %
same,Disease Severity Intensity,"[1]; 28 dpi, rate N (g a.i./ha): ADF-16 100, penthiopyrad 200, metconazole 90, tebuconazole 250, control 77.4",0.0 +/− 0.0b %
same,Disease Severity Intensity,"[1]; 28 dpi, rate N/2.5 (g a.i./ha): ADF-16 40, penthiopyrad 80, metconazole 36, tebuconazole 100, control 77.4",0.0 +/− 0.0b %
same,"Efficacy (from AUDPC, percentage of the untreated control)",[1]; [9],100%
same,AUDPC,[1]; [9],0.0 +/− 0.0b
same,"Efficacy (from AUDPC, percentage of the untreated control)",[1]; [10],100%
same,AUDPC,[1]; [10],0.0 +/− 0.0b
same,Disease Severity Intensity,[2]; [7],No disease
same,Disease Severity Intensity,[2]; [8],No disease
same,Disease Severity Intensity,"[2]; 21 dpi, rate N/2.5 (g a.i./ha): ADF-16 40, penthiopyrad 80, metconazole 36, tebuconazole 100, control 63.3",10.1 +/− 1.6c %
same,Disease Severity Intensity,"[2]; 28 dpi, rate N (g a.i./ha): ADF-16 100, penthiopyrad 200, metconazole 90, tebuconazole 250, control 88.1",35.1 +/− 3.8d %
same,Disease Severity Intensity,"[2]; 28 dpi, rate N/2.5 (g a.i./ha): ADF-16 40, penthiopyrad 80, metconazole 36, tebuconazole 100, control 88.1",65.6 +/− 4.2bc %
same,fungicide efficacy,[2]; higher application rates (N),≥ 85%
same,fungicide efficacy,[2]; lower application rates (N/2.5),≤ 70%
same,"Efficacy (from AUDPC, percentage of the untreated control)",[2]; [9],85.9%
same,AUDPC,[2]; [9],168.8 +/− 45.4cd
same,"Efficacy (from AUDPC, percentage of the untreated control)",[2]; [10],68.9%
same,AUDPC,[2]; [10],371.8 +/− 48.7b
same,Disease Severity Intensity,"[3]; 15 dpi, rate N (g a.i./ha): ADF-16 100, penthiopyrad 200, metconazole 90, tebuconazole 250, control 47.9",0.0 +/− 0.0d %
same,Disease Severity Intensity,"[3]; 15 dpi, rate N/2.5 (g a.i./ha): ADF-16 40, penthiopyrad 80, metconazole 36, tebuconazole 100, control 47.9",1.3 +/− 1.2d %
same,Disease Severity Intensity,"[3]; 21 dpi, rate N (g a.i./ha): ADF-16 100, penthiopyrad 200, metconazole 90, tebuconazole 250, control 81.0",18.2 +/− 2.6d %
same,Disease Severity Intensity,"[3]; 21 dpi, rate N/2.5 (g a.i./ha): ADF-16 40, penthiopyrad 80, metconazole 36, tebuconazole 100, control 81.0",58.7 +/− 2.8c %
same,Disease Severity Intensity,"[3]; 28 dpi, rate N (g a.i./ha): ADF-16 100, penthiopyrad 200, metconazole 90, tebuconazole 250, control 92.2",86.3 +/− 2.4ab %
same,Disease Severity Intensity,"[3]; 28 dpi, rate N/2.5 (g a.i./ha): ADF-16 40, penthiopyrad 80, metconazole 36, tebuconazole 100, control 92.2",84.6 +/− 4.3b %
same,"Efficacy (from AUDPC, percentage of the untreated control)",[3]; [9],69.0%
same,AUDPC,[3]; [9],419.9 +/− 29.6e
same,"Efficacy (from AUDPC, percentage of the untreated control)",[3]; [10],48.9%
same,AUDPC,[3]; [10],691.1 ± 28.1 days
same,Disease Severity Intensity,"[4]; 15 dpi, rate N (g a.i./ha): ADF-16 100, penthiopyrad 200, metconazole 90, tebuconazole 250, control 22.0",0.0 +/− 0.0b %
same,Disease Severity Intensity,"[4]; 15 dpi, rate N/2.5 (g a.i./ha): ADF-16 40, penthiopyrad 80, metconazole 36, tebuconazole 100, control 22.0",0.0 +/− 0.0b %
same,Disease Severity Intensity,"[4]; 21 dpi, rate N (g a.i./ha): ADF-16 100, penthiopyrad 200, metconazole 90, tebuconazole 250, control 81.7",0.3 +/− 0.2c %
same,Disease Severity Intensity,"[4]; 21 dpi, rate N/2.5 (g a.i./ha): ADF-16 40, penthiopyrad 80, metconazole 36, tebuconazole 100, control 81.7",2.1 +/− 0.8b %
same,Disease Severity Intensity,"[4]; 28 dpi, rate N (g a.i./ha): ADF-16 100, penthiopyrad 200, metconazole 90, tebuconazole 250, control 91.0",12.0 +/− 1.9c %
same,Disease Severity Intensity,"[4]; 28 dpi, rate N/2.5 (g a.i./ha): ADF-16 40, penthiopyrad 80, metconazole 36, tebuconazole 100, control 91.0",22.4 +/− 2.3b %
same,Disease Severity Intensity,[5]; [7],No disease
same,Disease Severity Intensity,[5]; [8],No disease
same,Disease Severity Intensity,"[5]; 21 dpi, rate N (g a.i./ha): ADF-16 100, penthiopyrad 200, metconazole 90, tebuconazole 250, control 77.2",1.9 +/− 0.7cd %
same,Disease Severity Intensity,"[5]; 21 dpi, rate N/2.5 (g a.i./ha): ADF-16 40, penthiopyrad 80, metconazole 36, tebuconazole 100, control 77.2",15.1 +/− 2.8b %
same,Disease Severity Intensity,"[5]; 28 dpi, rate N (g a.i./ha): ADF-16 100, penthiopyrad 200, metconazole 90, tebuconazole 250, control 95.5",33.0 +/− 3.6d %
same,Disease Severity Intensity,"[5]; 28 dpi, rate N/2.5 (g a.i./ha): ADF-16 40, penthiopyrad 80, metconazole 36, tebuconazole 100, control 95.5",78.0 +/− 5.0b %
same,Disease Severity Intensity,"[6]; 15 dpi, rate N (g a.i./ha): ADF-16 100, penthiopyrad 200, metconazole 90, tebuconazole 250, control 36.0",0.0 +/− 0.0b %
same,Disease Severity Intensity,"[6]; 15 dpi, rate N/2.5 (g a.i./ha): ADF-16 40, penthiopyrad 80, metconazole 36, tebuconazole 100, control 36.0",1.7 +/− 0.9b %
same,Disease Severity Intensity,"[6]; 21 dpi, rate N (g a.i./ha): ADF-16 100, penthiopyrad 200, metconazole 90, tebuconazole 250, control 84.3",25.6 +/− 3.9d %
same,Disease Severity Intensity,"[6]; 21 dpi, rate N/2.5 (g a.i./ha): ADF-16 40, penthiopyrad 80, metconazole 36, tebuconazole 100, control 84.3",61.8 +/− 2.5bc %
same,Disease Severity Intensity,"[6]; 28 dpi, rate N (g a.i./ha): ADF-16 100, penthiopyrad 200, metconazole 90, tebuconazole 250, control 95.7",82.4 +/− 3.4c %
same,Disease Severity Intensity,"[6]; 28 dpi, rate N/2.5 (g a.i./ha): ADF-16 40, penthiopyrad 80, metconazole 36, tebuconazole 100, control 95.7",92.1 +/− 1.2b %
same,"Efficacy (from AUDPC, percentage of the untreated control)",[6]; [9],64.0%
same,AUDPC,[6]; [9],454.7 +/− 29.0c
same,"Efficacy (from AUDPC, percentage of the untreated control)",[6]; [10],41.1%
same,AUDPC,[6]; [10],743.0 +/− 14.9b
